We go through 34 compounds from patent US12509454B2, “Thiadiazolyl derivatives” (IDEAYA Biosciences, Inc., priority 2019, dated 2025).

For orientation: IC50 means the concentration needed to halve the response being measured.

Pol theta (1-899), sequence (O75417 1-899): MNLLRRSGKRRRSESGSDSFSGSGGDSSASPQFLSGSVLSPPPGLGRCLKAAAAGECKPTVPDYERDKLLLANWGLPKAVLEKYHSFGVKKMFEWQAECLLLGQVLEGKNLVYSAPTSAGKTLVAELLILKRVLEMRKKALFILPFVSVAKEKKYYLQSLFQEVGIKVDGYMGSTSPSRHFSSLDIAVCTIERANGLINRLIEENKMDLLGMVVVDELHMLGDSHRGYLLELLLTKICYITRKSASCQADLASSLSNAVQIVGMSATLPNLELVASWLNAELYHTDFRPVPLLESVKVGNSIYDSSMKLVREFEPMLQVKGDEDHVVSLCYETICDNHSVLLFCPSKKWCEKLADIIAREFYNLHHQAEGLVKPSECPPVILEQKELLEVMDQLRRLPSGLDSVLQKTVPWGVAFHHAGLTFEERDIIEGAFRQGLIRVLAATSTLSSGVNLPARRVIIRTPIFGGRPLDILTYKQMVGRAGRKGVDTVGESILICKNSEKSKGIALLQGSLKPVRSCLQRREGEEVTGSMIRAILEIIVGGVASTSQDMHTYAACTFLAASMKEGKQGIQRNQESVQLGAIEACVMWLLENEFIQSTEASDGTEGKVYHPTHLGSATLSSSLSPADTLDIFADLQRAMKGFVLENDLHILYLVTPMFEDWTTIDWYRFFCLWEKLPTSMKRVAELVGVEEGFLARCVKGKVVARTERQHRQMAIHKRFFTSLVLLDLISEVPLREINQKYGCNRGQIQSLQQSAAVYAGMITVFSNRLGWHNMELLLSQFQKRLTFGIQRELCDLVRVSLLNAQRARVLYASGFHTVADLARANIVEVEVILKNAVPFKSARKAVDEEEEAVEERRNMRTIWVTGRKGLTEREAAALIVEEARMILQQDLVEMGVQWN

The target of this assay is Pol theta (1-899) (Homo sapiens (Human), UniProt O75417). Nature of the assay: Pol theta ATPase activity, NADH oxidation-coupled enzymatic assay. It counts as biochemical. Particulars: Pol theta (1-899) 10 nM, ATP, dT50 ssDNA, absorbance 340 nm, 10-point dilution series; read-out: ATPase NADH coupling:Standard Screening:hPolQ IC50. The gist of the method:
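Pol theta (1-899), 10 nM, preincubated 15 min at RT with 10-point compound series in Tris pH 7.80/KCl/MgCl2 buffer, then given 100 μM ATP plus 300 nM dT50 ssDNA with PK/LDH-coupled NADH oxidation. A340 followed for 30 min; rate slopes fitted with a four-parameter model for IC50.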
For `COc1cccc(F)c1-c1cc(C)ncc1C(=O)Nc1nnc(OCc2ccc(C3(C#N)CC3)cn2)s1` [Example 217, N-(5-((5-(1-cyanocyclopropyl)pyridin-2-yl)methoxy)-1,3,4-thiadiazol-2-yl)-4-(2-fluoro-6-methoxyphenyl)-6-methylnicotinamide], the IC50 is at most 200 nM.

On to `COc1ccccc1-c1cc(C#N)ncc1C(=O)Nc1nnc(OCc2ccc(Cl)cn2)s1` [Example 96, N-(5-((5-chloropyridin-2-yl)methoxy)-1,3,4-thiadiazol-2-yl)-6-cyano-4-(2-methoxyphenyl)nicotinamide], for which the IC50 is at most 200 nM.

With `COc1ccccc1-c1cc(C(=O)O)ncc1C(=O)Nc1nnc(OCc2ccc(Br)cc2)s1` [Example 152, 5-([5-[(4-bromophenyl)methoxy]-1,3,4-thiadiazol-2-yl]carbamoyl)-4-(2-methoxyphenyl)pyridine-2-carboxylic acid], the IC50 was at most 200 nM.

`COc1cnccc1-c1cnccc1C(=O)Nc1nnc(OCc2ccc(Cl)cc2)s1` [Example 131, N-(5-((4-chlorobenzyl)oxy)-1,3,4-thiadiazol-2-yl)-3′-methoxy-[3,4′-bipyridine]-4-carboxamide]: the IC50 is at most 200 nM.

As to `COc1ccccc1-c1cnccc1C(=O)Nc1nnc(OCc2cccc3[nH]cnc23)s1` [Example 145, N-[5-(1H-1,3-benzodiazol-4-ylmethoxy)-1,3,4-thiadiazol-2-yl]-3-(2-methoxyphenyl)pyridine-4-carboxamide], the half-inhibitory concentration (IC50) was at most 200 nM.

As for `O=C1CN(c2ncccc2C(=O)Nc2nnc(OCc3ccc(Cl)cc3)s2)CCN1` [Example 27, N-(5-((4-chlorobenzyl)oxy)-1,3,4-thiadiazol-2-yl)-2-(3-oxopiperazin-1-yl)nicotinamide], the IC50 is 200 to 500 nM.

`COc1ccccc1-c1cnccc1C(=O)Nc1nnc(OCc2ccc(Cl)c3[nH]ncc23)s1` [Example 107, N-(5-((7-chloro-1H-indazol-4-yl)methoxy)-1,3,4-thiadiazol-2-yl)-3-(2-methoxyphenyl)isonicotinamide]: the IC50 is at most 200 nM.

Regarding `O=C(Nc1nnc(OCc2ccc(Cl)cn2)s1)c1cccnc1-c1ccccc1Cl` [Example 51, 2-(2-chlorophenyl)-N-[5-[(5-chloropyridin-2-yl)methoxy]-1,3,4-thiadiazol-2-yl]pyridine-3-carboxamide], the concentration for half-maximal inhibition (IC50) lay in the range of 1000 to 10000 nM.

`CCc1ccccc1-c1cnccc1C(=O)Nc1nnc(OCc2ccc(Cl)cc2)s1` [Example 135, N-[5-[(4-chlorophenyl)methoxy]-1,3,4-thiadiazol-2-yl]-3-(2-ethylphenyl)pyridine-4-carboxamide]: the IC50 was at most 200 nM.

On to `O=C(Nc1nnc(OCc2ccc(Cl)cc2)s1)c1cncn1-c1cccnc1` [Example 17, N-(5-((4-chlorobenzyl)oxy)-1,3,4-thiadiazol-2-yl)-1-(pyridin-3-yl)-1H-imidazole-5-carboxamide], for which the IC50 fell in the range of 500 to 1000 nM.

`O=C(Nc1nnc(OCc2ccc(Cl)cc2)s1)c1cnccc1-c1ccccc1OC1CC1` [Example 93, N-(5-((4-chlorobenzyl)oxy)-1,3,4-thiadiazol-2-yl)-4-(2-cyclopropoxyphenyl)nicotinamide]: the IC50 is at most 200 nM.

As to `COc1ccccc1-c1ccncc1C(=O)Nc1nnc(OCc2ccc(Cl)cn2)s1` [Example 89, N-(5-((5-chloropyridin-2-yl)methoxy)-1,3,4-thiadiazol-2-yl)-4-(2-methoxyphenyl)nicotinamide], the 50% inhibitory concentration (IC50) is at most 200 nM.

Consider `COc1cccc(Cl)c1-c1cnccc1C(=O)Nc1nnc(OCc2ccc(Cl)cc2)s1` [Example 125, 3-(2-chloro-6-methoxyphenyl)-N-(5-((4-chlorobenzyl)oxy)-1,3,4-thiadiazol-2-yl)isonicotinamide], for which the IC50 was at most 200 nM.

As to `COc1cnccc1-c1cc(C)ncc1C(=O)Nc1nnc(OCc2ccc(Cl)cn2)s1` [Example 194, N-(5-((5-chloropyridin-2-yl)methoxy)-1,3,4-thiadiazol-2-yl)-3′-methoxy-6-methyl-[4,4′-bipyridine]-3-carboxamide], the IC50 is at most 200 nM.

For `O=C(Nc1nnc(OCc2ccc(Cl)cc2)s1)c1cnccc1N1CCN(CCN2CCOCC2)C(=O)C1` [Example 83, N-[5-[(4-chlorophenyl)methoxy]-1,3,4-thiadiazol-2-yl]-4-[4-[2-(morpholin-4-yl)ethyl]-3-oxopiperazin-1-yl]pyridine-3-carboxamide], the IC50 is 500 to 1000 nM.

For `COc1ccccc1-c1cnccc1C(=O)Nc1nnc(OCc2ccc(Cl)cn2)s1` [Example 99, N-[5-[(5-chloropyridin-2-yl)methoxy]-1,3,4-thiadiazol-2-yl]-3-(2-methoxyphenyl)pyridine-4-carboxamide], the concentration for half-maximal inhibition (IC50) is at most 200 nM.

For `Cc1cc(-c2c(F)cccc2OC(F)F)c(C(=O)Nc2nnc(OCc3ccc(Cl)cn3)s2)cn1` [Example 190, N-(5-((5-chloropyridin-2-yl)methoxy)-1,3,4-thiadiazol-2-yl)-4-(2-(difluoromethoxy)-6-fluorophenyl)-6-methylnicotinamide], the IC50 is at most 200 nM.

Regarding `O=C(Nc1nnc(OCc2ccc(Cl)cc2)s1)c1ccc(Br)nc1N1CCOCC1` [Example 58, 6-bromo-N-(5-((4-chlorobenzyl)oxy)-1,3,4-thiadiazol-2-yl)-2-morpholinonicotinamide], the IC50 lay within 500 to 1000 nM.

Turning to `Cc1nn(C)cc1-c1cnccc1C(=O)Nc1nnc(OCc2ccc(Cl)cc2)s1` [Example 169, N-[5-[(4-chlorophenyl)methoxy]-1,3,4-thiadiazol-2-yl]-3-(1,3-dimethylpyrazol-4-yl)pyridine-4-carboxamide], the IC50 was at most 200 nM.

For the compound `COc1ccccc1-c1cc([C@@H](C)O)ncc1C(=O)Nc1nnc(OCc2ccc(Cl)cc2)s1` (racemic) [Example 167, N-[5-[(4-chlorophenyl)methoxy]-1,3,4-thiadiazol-2-yl]-6-(1-hydroxyethyl)-4-(2-methoxyphenyl)pyridine-3-carboxamide], the IC50 was 200 to 500 nM.

As for `O=C(Nc1nnc(OCc2ccc(Cl)cn2)s1)c1ccncc1N1CCOC2(CC2)C1` [Example 173, N-[5-[(5-chloropyridin-2-yl)methoxy]-1,3,4-thiadiazol-2-yl]-3-[4-oxa-7-azaspiro[2.5]octan-7-yl]pyridine-4-carboxamide], the IC50 fell in the range of 200 to 500 nM.

For `Cc1n[nH]c(C)c1-c1cnccc1C(=O)Nc1nnc(OCc2ccc(Cl)cc2)s1` [Example 140, N-[5-[(4-chlorophenyl)methoxy]-1,3,4-thiadiazol-2-yl]-3-(3,5-dimethyl-1H-pyrazol-4-yl)pyridine-4-carboxamide], the IC50 is at most 200 nM.

With `O=C(Nc1nnc(OCc2ccc(Cl)cn2)s1)c1cnc(CO)cc1-c1ccccc1OC(F)F` [Example 104, N-(5-((5-chloropyridin-2-yl)methoxy)-1,3,4-thiadiazol-2-yl)-4-(2-(difluoromethoxy)phenyl)-6-(hydroxymethyl)nicotinamide], the IC50 was at most 200 nM.

As to `CN1CCN(c2ncccc2C(=O)Nc2nnc(OCc3ccc(Cl)cc3)s2)CC1=O` [Example 45, N-[5-[(4-chlorophenyl)methoxy]-1,3,4-thiadiazol-2-yl]-2-(4-methyl-3-oxopiperazin-1-yl)pyridine-3-carboxamide], the IC50 lay within 500 to 1000 nM.

As for `O=C(Nc1nnc(OCc2ccc(Cl)cn2)s1)c1cccnc1N1CCC(F)(F)CC1` [Example 39, N-(5-((5-chloropyridin-2-yl)methoxy)-1,3,4-thiadiazol-2-yl)-2-(4,4-difluoropiperidin-1-yl)nicotinamide], the 50% inhibitory concentration (IC50) was 1000 to 10000 nM.

Take `COc1ccccc1-c1cc(C(F)(F)F)ncc1C(=O)Nc1nnc(OCc2ccc(Cl)cc2)s1` [Example 156, N-[5-[(4-chlorophenyl)methoxy]-1,3,4-thiadiazol-2-yl]-4-(2-methoxyphenyl)-6-(trifluoromethyl)pyridine-3-carboxamide]: the half-inhibitory concentration (IC50) was at most 200 nM.

Turning to `N#Cc1ccc(C(=O)Nc2nnc(OCc3ccc(Cl)cc3)s2)c(N2CCOCC2)n1` [Example 14, N-(5-((4-chlorobenzyl)oxy)-1,3,4-thiadiazol-2-yl)-6-cyano-2-morpholinonicotinamide], the IC50 is at most 200 nM.

With `COc1cc(C#N)ccc1-c1cnccc1C(=O)Nc1nnc(OCc2ccc(Cl)cc2)s1` [Example 127, N-(5-((4-chlorobenzyl)oxy)-1,3,4-thiadiazol-2-yl)-3-(4-cyano-2-methoxyphenyl)isonicotinamide], the IC50 is at most 200 nM.

With `COc1ccccc1-c1cnccc1C(=O)Nc1nnc(OCc2ccccc2)s1` [Example 174, N-(5-(benzyloxy)-1,3,4-thiadiazol-2-yl)-3-(2-methoxyphenyl)isonicotinamide], the half-maximal inhibitory concentration (IC50) is at most 200 nM.

Turning to `Cn1cc(-c2ncccc2C(=O)Nc2nnc(OCc3ccc(Cl)cc3)s2)ccc1=O` [Example 80, N-(5-((4-chlorobenzyl)oxy)-1,3,4-thiadiazol-2-yl)-1′-methyl-6′-oxo-1′,6′-dihydro-[2,3′-bipyridine]-3-carboxamide], the 50% inhibitory concentration (IC50) lay within 200 to 500 nM.

In the case of `COc1cc(N2CCOCC2)c(C(=O)Nc2nnc(OCc3ccc(Cl)cc3)s2)cn1` [Example 75, N-(5-((4-chlorobenzyl)oxy)-1,3,4-thiadiazol-2-yl)-6-methoxy-4-morpholino-nicotinamide], the IC50 fell in the range of 500 to 1000 nM.

Consider `COc1ccccc1-c1cc(C)ncc1C(=O)Nc1nnc(OCc2ccc(C#N)cn2)s1` [Example 219, N-(5-((5-cyanopyridin-2-yl)methoxy)-1,3,4-thiadiazol-2-yl)-4-(2-methoxyphenyl)-6-methylnicotinamide], for which the IC50 is at most 200 nM.

Take `COc1cccc(F)c1-c1cnccc1C(=O)Nc1nnc(OCc2ccc(Cl)cc2)s1` [Example 124, N-(5-((4-chlorobenzyl)oxy)-1,3,4-thiadiazol-2-yl)-3-(2-fluoro-6-methoxyphenyl)isonicotinamide]: the 50% inhibitory concentration (IC50) was at most 200 nM.

Turning to `COc1ccccc1-c1cc(C)ncc1C(=O)Nc1nnc(OCc2ccc(F)cn2)s1` [Example 221, N-[5-[(5-fluoropyridin-2-yl)methoxy]-1,3,4-thiadiazol-2-yl]-4-(2-methoxyphenyl)-6-methylpyridine-3-carboxamide], the IC50 is at most 200 nM.
